target: Factor D (Homo sapiens (Human), UniProt P00746); experiment: biochemical; format: biochemical; details: read-out: IC50
Sequence (P00746 26-253): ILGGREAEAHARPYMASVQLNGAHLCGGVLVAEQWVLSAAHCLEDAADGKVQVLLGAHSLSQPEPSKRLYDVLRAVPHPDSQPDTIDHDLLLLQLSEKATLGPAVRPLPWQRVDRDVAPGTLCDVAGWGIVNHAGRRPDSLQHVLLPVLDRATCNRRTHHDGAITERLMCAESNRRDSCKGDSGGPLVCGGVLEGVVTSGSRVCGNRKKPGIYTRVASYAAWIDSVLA

Question: `NC(=O)n1cc(NC(=O)N2C[C@](F)(CO)C[C@H]2C(=O)NCc2cccc(Cl)c2F)c2ccccc21` [Example 356, 2S,4S)-4-Fluoro-4-hydroxymethyl-pyrrolidine-1,2-dicarboxylic acid 1-[(1-carbamoyl-1H-indol-3-yl)-amide]2-(3-chloro-2-fluoro-benzylamide] was tested. Which IC50 did it give?
Answer: 480 nM

Question: How did the IC50 turn out when `NC(=O)n1cc(NC(=O)N2[C@H]3C[C@@]3(CO)C[C@H]2C(=O)NCc2cccc(Cl)c2F)c2ccccc21` [Example 357, 1S,3S,5R)-5-Hydroxymethyl-2-aza-bicyclo[3.1.0]hexane-2,3-dicarboxylic acid 2-[(1-carbamoyl-1H-indol-3-yl)-amide]3-(3-chloro-2-fluoro-benzylamide] was run?
Answer: 389 nM

Question: How did the IC50 turn out when `NC(=O)n1cc(NC(=O)N2[C@H](C(=O)NCc3cccc(Cl)c3F)C[C@@]3(CO)C[C@@H]23)c2ccccc21` [Example 358, 1R,3S,5S)-5-Hydroxymethyl-2-aza-bicyclo[3.1.0]hexane-2,3-dicarboxylic acid 2-[(1-carbamoyl-1H-indol-3-yl)-amide]3-(3-chloro-2-fluoro-benzylamide] was run?
Answer: 8 nM

Question: For `NC(=O)n1cc(NC(=O)N2C[C@@H](C(F)F)C[C@H]2C(=O)NCc2cccc(Cl)c2F)c2ccccc21` [Example 359, 2S,4S)-4-Difluoromethyl-pyrrolidine-1,2-dicarboxylic acid 1-[(1-carbamoyl-1H-indol-3-yl)-amide]2-(3-chloro-2-fluoro-benzylamide], which IC50 is on record?
Answer: 250 nM

Question: Which IC50 does the source give for `NC(=O)n1cc(NC(=O)N2[C@@H](CO)CC[C@H]2C(=O)Nc2cccc(OC(F)(F)F)c2)c2ccccc21` [Example 360, (2S,5R)-5-Hydroxymethyl-pyrrolidine-1,2-dicarboxylic acid 1-[(1-carbamoyl-1H-indol-3-yl)-amide]2-[(3-trifluoromethoxy-phenyl)-amide]] here?
Answer: 1000 nM

Question: For `NC(=O)n1cc(NC(=O)N2N=CCC2C(=O)NCc2cccc(Cl)c2)c2ccccc21` (stereo not shown) [Example 361, 4,5-Dihydro-pyrazole-1,5-dicarboxylic acid 1-[(1-carbamoyl-1H-indol-3-yl)-amide]5-(3-chloro-benzylamide)], which IC50 is on record?
Answer: 25 nM

Question: Which IC50 does the source give for `O=C(Nc1cccc(OC(F)(F)F)c1)[C@@H]1CCCN1C(=O)Nc1cn(C(=O)CO)c2ccccc12` [Example 366, (S)-Pyrrolidine-1,2-dicarboxylic acid 1-{[1-(2-hydroxy-acetyl)-1H-indol-3-yl]-amide}2-[(3-trifluoromethoxy-phenyl)-amide]] here?
Answer: 3250 nM

Question: How did the IC50 turn out when `CC(=O)n1cc(NC(=O)N2CCC[C@H]2C(=O)Nc2cccc(OC(F)(F)F)c2)c2ccc(C#N)cc21` [Example 367, (S)-Pyrrolidine-1,2-dicarboxylic acid 1-[(1-acetyl-6-cyano-1H-indol-3-yl)-amide]2-[(3-trifluoromethoxy-phenyl)-amide]] was run?
Answer: 7950 nM

Question: Which IC50 does the source give for `CC(=O)n1cc(NC(=O)N2C[C@H](F)C[C@H]2C(=O)NCc2cccc(Cl)c2F)c2ccc(OC(F)F)cc21` [Example 368, 2S,4R)-4-Fluoro-pyrrolidine-1,2-dicarboxylic acid 1-[(1-acetyl-6-difluoromethoxy-1H-indol-3-yl)-amide]2-(3-chloro-2-fluoro-benzylamide] here?
Answer: 66 nM

Question: How did the IC50 turn out when `NC(=O)n1cc(NC(=O)N2CCC[C@H]2C(=O)Nc2cccc(OC(F)(F)F)c2)c2ccc(O)cc21` [Example 369, (S)-Pyrrolidine-1,2-dicarboxylic acid 1-[(1-carbamoyl-6-hydroxy-1H-indol-3-yl)-amide]2-[(3-trifluoromethoxy-phenyl)-amide]] was run?
Answer: 850 nM

Question: Which IC50 does the source give for `NC(=O)n1cc(NC(=O)N2CCC[C@H]2C(=O)Nc2cccc(OC(F)(F)F)c2)c2cc(O)ccc21` [Example 370, (S)-Pyrrolidine-1,2-dicarboxylic acid 1-[(1-carbamoyl-5-hydroxy-1H-indol-3-yl)-amide]2-[(3-trifluoromethoxy-phenyl)-amide]] here?
Answer: 95 nM

Question: Which IC50 does the source give for `NC(=O)n1cc(NC(=O)N2[C@@H]3C[C@@H]3C[C@H]2C(=O)NCc2cccc(Cl)c2F)c2cc(O)ccc21` [Example 371, (1R,3S,5R)-2-aza-bicyclo[3.1.0]hexane-2,3-dicarboxylic acid 2-[(1-carbamoyl-5-hydroxy-1H-indol-3-yl)-amide]3-(3-chloro-2-fluoro-benzylamide)] here?
Answer: 3 nM

Question: How did the IC50 turn out when `NC(=O)n1cc(NC(=O)N2[C@@H]3C[C@@H]3C[C@H]2C(=O)NCc2ccccc2F)c2cc(O)ccc21` [Example 372, (1R,3S,5R)-2-Aza-bicyclo[3.1.0]hexane-2,3-dicarboxylic acid 2-[(1-carbamoyl-5-hydroxy-1H-indol-3-yl)-amide]3-(2-fluoro-benzylamide)] was run?
Answer: 45 nM

Question: For `N#CCOc1ccc2c(c1)c(NC(=O)N1[C@@H]3C[C@@H]3C[C@H]1C(=O)NCc1cccc(Cl)c1F)cn2C(N)=O` [Example 373, 1R,3S,5R)-2-Aza-bicyclo[3.1.0]hexane-2,3-dicarboxylic acid 2-[(1-carbamoyl-5-cyanomethoxy-1H-indol-3-yl)-amide]3-(3-chloro-2-fluoro-benzylamide], which IC50 is on record?
Answer: 1 nM

Question: Which IC50 does the source give for `NC(=O)n1cc(NC(=O)N2[C@@H]3C[C@@H]3C[C@H]2C(=O)NCc2cccc(Cl)c2F)c2cc(OCC(=O)O)ccc21` [Example 374, (1-Carbamoyl-3-{[(1R,3S,5R)-3-(3-chloro-2-fluoro-benzylcarbamoyl)-2-aza-bicyclo[3.1.0]hexane-2-carbonyl]-amino}-1H-indol-5-yloxy)-acetic acid] here?
Answer: 3 nM

Question: For `C[C@@]1(F)C[C@@H](C(=O)NCc2cccc(Cl)c2F)N(C(=O)Nc2cn(C(N)=O)c3ccc(OCC(=O)O)cc23)C1` [Example 375, (1-Carbamoyl-3-{[(2S,4R)-2-(3-chloro-2-fluoro-benzylcarbamoyl)-4-fluoro-4-methyl-pyrrolidine-1-carbonyl]-amino}-1H-indol-5-yloxy)-acetic acid], which IC50 is on record?
Answer: 2 nM

Question: `NC(=O)n1cc(NC(=O)N2[C@@H]3C[C@@H]3C[C@H]2C(=O)NCc2cccc(Cl)c2F)c2ccc(OCC(=O)O)cc21` [Example 376, (1-Carbamoyl-3-{[(1R,3S,5R)-3-(3-chloro-2-fluoro-benzylcarbamoyl)-2-aza-bicyclo[3.1.0]hexane-2-carbonyl]-amino}-1H-indol-6-yloxy)-acetic acid] was tested. Which IC50 did it give?
Answer: 247 nM

Question: `NC(=O)n1cc(NC(=O)N2[C@@H]3C[C@@H]3C[C@H]2C(=O)NCc2cccc(Cl)c2F)c2cc(CC(=O)O)ccc21` [Example 377, (1-Carbamoyl-3-{[(1R,3S,5R)-3-(3-chloro-2-fluoro-benzylcarbamoyl)-2-aza-bicyclo[3.1.0]hexane-2-carbonyl]-amino}-1H-indol-5-yl)-acetic acid] was tested. Which IC50 did it give?
Answer: 20 nM

Question: With `NC(=O)n1cc(NC(=O)N2[C@@H]3C[C@@H]3C[C@H]2C(=O)NCc2cccc(Cl)c2F)c2ccc(CC(=O)O)cc21` [Example 378, (1-Carbamoyl-3-{[(1R,3S,5R)-3-(3-chloro-2-fluoro-benzylcarbamoyl)-2-aza-bicyclo[3.1.0]hexane-2-carbonyl]-amino}-1H-indol-6-yl)-acetic acid] as the molecule, how does the IC50 read?
Answer: 24 nM

Question: How did the IC50 turn out when `NC(=O)n1cc(NC(=O)N2[C@@H]3C[C@@H]3C[C@H]2C(=O)NCc2cccc(Cl)c2F)c2cc(OCCO)ccc21` [Example 379, (1R,3S,5R)-2-aza-bicyclo[3.1.0]hexane-2,3-dicarboxylic acid 2-{[1-carbamoyl-5-(2-hydroxy-ethoxy)-1H-indol-3-yl]-amide}3-(3-chloro-2-fluoro-benzylamide)] was run?
Answer: 5 nM

Question: `NC(=O)n1cc(NC(=O)N2CCS[C@H]2C(=O)NCc2cccc(Cl)c2F)c2cc(OCCO)ccc21` [Example 380, S)-Thiazolidine-2,3-dicarboxylic acid 3-{[1-carbamoyl-5-(2-hydroxy-ethoxy)-1H-indol-3-yl]-amide}2-(3-chloro-2-fluoro-benzylamide] was tested. Which IC50 did it give?
Answer: 17 nM

Question: How did the IC50 turn out when `NC(=O)n1cc(NC(=O)N2[C@@H]3C[C@@H]3C[C@H]2C(=O)Nc2cccc(OC(F)(F)F)c2)c2cc(OCCO)ccc21` [Example 381, (1R,3S,5R)-2-Aza-bicyclo[3.1.0]hexane-2,3-dicarboxylic acid 2-{[1-carbamoyl-5-(2-hydroxy-ethoxy)-1H-indol-3-yl]-amide}3-[(3-trifluoromethoxy-phenyl)-amide]] was run?
Answer: 57 nM

Question: For `C[C@@]1(F)C[C@@H](C(=O)NCc2cccc(Cl)c2F)N(C(=O)Nc2cn(C(N)=O)c3ccc(OCCO)cc23)C1` [Example 383, 2S,4R)-4-Fluoro-4-methyl-pyrrolidine-1,2-dicarboxylic acid 1-{[1-carbamoyl-5-(2-hydroxy-ethoxy)-1H-indol-3-yl]-amide}2-(3-chloro-2-fluoro-benzylamide], which IC50 is on record?
Answer: 4 nM

Question: With `NC(=O)n1cc(NC(=O)N2[C@@H]3C[C@@H]3C[C@H]2C(=O)NCc2cccc(Cl)c2F)c2ccc(CCO)cc21` [Example 384, 1R,3S,5R)-2-Aza-bicyclo[3.1.0]hexane-2,3-dicarboxylic acid 2-{[1-carbamoyl-6-(2-hydroxy-ethyl)-1H-indol-3-yl]-amide}3-(3-chloro-2-fluoro-benzylamide] as the molecule, how does the IC50 read?
Answer: 32 nM

Question: `NC(=O)n1cc(NC(=O)N2[C@@H]3C[C@@H]3C[C@H]2C(=O)NCc2cccc(Cl)c2F)c2cc(CCO)ccc21` [Example 385, 1R,3S,5R)-2-Aza-bicyclo[3.1.0]hexane-2,3-dicarboxylic acid 2-{[1-carbamoyl-5-(2-hydroxy-ethyl)-1H-indol-3-yl]-amide}3-(3-chloro-2-fluoro-benzylamide] was tested. Which IC50 did it give?
Answer: 7 nM

Question: For `CC(C)(O)COc1ccc2c(c1)c(NC(=O)N1C3CC3C[C@H]1C(=O)NCc1cccc(Cl)c1F)cn2C(N)=O` (stereo partly drawn) [Example 386, 1R,3S,5R)-2-Aza-bicyclo[3.1.0]hexane-2,3-dicarboxylic acid 2-{[1-carbamoyl-5-(2-hydroxy-2-methyl-propoxy)-1H-indol-3-yl]-amide}3-(3-chloro-2-fluoro-benzylamide], which IC50 is on record?
Answer: 8 nM

Question: With `CN(C)CCOc1ccc2c(c1)c(NC(=O)N1[C@@H]3C[C@@H]3C[C@H]1C(=O)NCc1cccc(Cl)c1F)cn2C(N)=O` [Example 387, 1R,3S,5R)-2-Aza-bicyclo[3.1.0]hexane-2,3-dicarboxylic acid 2-{[1-carbamoyl-5-(2-dimethylamino-ethoxy)-1H-indol-3-yl]-amide}3-(3-chloro-2-fluoro-benzylamide] as the molecule, how does the IC50 read?
Answer: 57 nM

Question: For `NC(=O)n1cc(NC(=O)N2[C@@H]3C[C@@H]3C[C@H]2C(=O)NCc2cccc(Cl)c2F)c2cc(OCCN3CCCC3)ccc21` [Example 388, 1R,3S,5R)-2-Aza-bicyclo[3.1.0]hexane-2,3-dicarboxylic acid 2-{[1-carbamoyl-5-(2-pyrrolidin-1-yl-ethoxy)-1H-indol-3-yl]-amide}3-(3-chloro-2-fluoro-benzylamide], which IC50 is on record?
Answer: 28 nM

Reference: patent US9085555B2, “Complement pathway modulators and uses thereof” (priority 2011, dated 2015)
